The source made the active and inactive calls. The rule behind the calls is not given here.
What was measured:
[1] = target: Histone-lysine N-methyltransferase EZH2 (Homo sapiens) (UniProt Q15910); experiment: Inhibition of EZH2 (unknown origin) at 10 uM using SAM as substrate measured up to 960 mins by AlphaScreen microplate reader assay relative to control; settings: time min <=960
KARPAS-422 [2] = experiment: Antitumor activity against human KARPAS-422 cells harboring EZH2 Y641N mutant xenografted in NCG mouse assessed as change in tumor weight at 100 mg/kg, po BID via gavage measured after 28 days (reference value: 2.14 g); assay type: functional; settings: time 28 day
[3] = target: N-lysine methyltransferase KMT5A (Homo sapiens) (UniProt Q9NQR1); experiment: Inhibition of SET8 (unknown origin) at 10 uM using SAM as substrate measured up to 960 mins by AlphaScreen microplate reader assay relative to control; settings: time min <=960
Sequence of N-lysine methyltransferase KMT5A (Homo sapiens) (Q9NQR1 whole entry): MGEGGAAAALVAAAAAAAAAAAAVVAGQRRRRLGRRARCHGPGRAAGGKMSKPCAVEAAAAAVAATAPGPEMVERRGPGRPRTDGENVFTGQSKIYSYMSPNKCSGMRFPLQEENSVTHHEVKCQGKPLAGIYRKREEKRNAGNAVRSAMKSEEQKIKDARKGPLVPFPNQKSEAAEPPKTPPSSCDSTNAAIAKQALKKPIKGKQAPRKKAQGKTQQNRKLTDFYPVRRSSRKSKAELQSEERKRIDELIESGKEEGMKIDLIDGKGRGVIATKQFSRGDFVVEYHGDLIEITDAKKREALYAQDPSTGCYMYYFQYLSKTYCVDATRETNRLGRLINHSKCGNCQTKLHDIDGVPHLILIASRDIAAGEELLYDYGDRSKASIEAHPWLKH

[4] = system: Histone-lysine N-methyltransferase EZH2 (Homo sapiens), Q15910 [Y641F]; experiment: Inhibition of EZH2 Y641F mutant (unknown origin) at 10 uM using SAM as substrate measured up to 960 mins by AlphaScreen microplate reader assay relative to control; settings: time min <=960
[5] = Clearance in rat at 10 mg/kg, po; assay type: ADME, organism-based; settings: in vivo
[6] = target: Protein arginine N-methyltransferase 8 (Homo sapiens) (UniProt Q9NR22); experiment: Inhibition of PRMT8 (unknown origin) at 10 uM using SAM as substrate measured up to 960 mins by AlphaScreen microplate reader assay relative to control; settings: time min <=960
Sequence of Protein arginine N-methyltransferase 8 (Homo sapiens) (Q9NR22 2-394 limits assumed): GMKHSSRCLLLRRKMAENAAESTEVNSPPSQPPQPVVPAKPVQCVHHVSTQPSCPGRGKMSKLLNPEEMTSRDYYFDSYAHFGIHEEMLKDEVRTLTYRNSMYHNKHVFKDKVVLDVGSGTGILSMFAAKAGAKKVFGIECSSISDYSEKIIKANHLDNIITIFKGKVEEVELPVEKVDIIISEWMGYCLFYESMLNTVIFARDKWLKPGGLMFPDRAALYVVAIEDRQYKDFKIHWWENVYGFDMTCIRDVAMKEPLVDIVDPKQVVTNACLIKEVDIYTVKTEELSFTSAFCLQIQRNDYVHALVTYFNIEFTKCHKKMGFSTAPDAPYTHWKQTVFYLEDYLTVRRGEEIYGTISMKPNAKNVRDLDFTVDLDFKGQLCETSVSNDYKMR

[7] = Cmax in rat at 1 mg/kg, iv; assay type: ADME, organism-based; set-up: route intravenous, dose 1 mg/kg; settings: in vivo
[8] = Cmax in rat at 10 mg/kg, po; assay type: ADME, organism-based; set-up: route oral, dose 10 mg/kg; settings: in vivo
[9] = target: Histone-lysine N-methyltransferase SETD7 (Homo sapiens) (UniProt Q8WTS6); experiment: Inhibition of SET7/9 (unknown origin) at 10 uM using SAM as substrate measured up to 960 mins by AlphaScreen microplate reader assay relative to control; settings: time min <=960
Sequence of Histone-lysine N-methyltransferase SETD7 (Homo sapiens) (Q8WTS6 whole entry): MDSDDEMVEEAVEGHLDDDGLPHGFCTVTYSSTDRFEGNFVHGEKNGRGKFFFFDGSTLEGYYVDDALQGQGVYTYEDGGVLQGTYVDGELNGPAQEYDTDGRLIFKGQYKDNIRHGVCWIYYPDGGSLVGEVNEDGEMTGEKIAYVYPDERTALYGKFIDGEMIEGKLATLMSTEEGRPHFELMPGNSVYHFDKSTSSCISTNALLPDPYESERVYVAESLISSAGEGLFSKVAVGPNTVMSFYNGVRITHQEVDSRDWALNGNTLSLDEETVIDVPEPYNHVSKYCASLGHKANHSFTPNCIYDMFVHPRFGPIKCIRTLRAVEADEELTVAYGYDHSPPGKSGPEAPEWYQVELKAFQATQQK

SUD4 = experiment: Antiproliferative activity against human SU-DHL-4 cells harboring EZH2 Y641S mutant assessed as inhibition of cell growth measured after 6 days by CellTiter-Glo luminescent assay; assay type: functional; settings: SU-DHL-4, 144 h, time 6 day
[10] = Cmax in mouse at 1 mg/kg, iv measured up to 24 hrs by LC-MS/MS analysis; assay type: ADME, organism-based; set-up: route intravenous, dose 1 mg/kg, time <=24; settings: in vivo
[11] = system: Histone-lysine N-methyltransferase EZH2 (Homo sapiens), Q15910 [A677G]; experiment: Inhibition of EZH2 A677G mutant (unknown origin) at 10 uM using SAM as substrate measured up to 960 mins by AlphaScreen microplate reader assay relative to control; settings: time min <=960
KARPAS-422 [12] = experiment: Antitumor activity against human KARPAS-422 cells harboring EZH2 Y641N mutant xenografted in NCG mouse assessed as change in tumor weight at 200 mg/kg, po BID via gavage measured after 28 days (reference value: 2.14 g); assay type: functional; settings: time 28 day
Pfeiffer [13] = experiment: Antitumor activity against human Pfeiffer cells harboring EZH2 A677G mutant xenografted in NCG mouse assessed as tumor growth inhibition at 200 mg/kg, po BID via gavage measured after 28 days relative to control; assay type: functional; settings: 672 h, time 28 day, read-out: TGI
[14] = system: Histone-lysine N-methyltransferase EZH2 (Homo sapiens), Q15910 [Y641S]; experiment: Inhibition of EZH2 Y641S mutant (unknown origin) at 10 uM using SAM as substrate measured up to 960 mins by AlphaScreen microplate reader assay relative to control; settings: time min <=960
KARPAS-422 [15] = experiment: Antitumor activity against human KARPAS-422 cells harboring EZH2 Y641N mutant xenografted in NCG mouse assessed as tumor regression at 200 mg/kg, po BID via gavage measured within 10 days; assay type: functional, organism-based; settings: time day <10
[16] = system: Histone-lysine N-methyltransferase EZH2 (Homo sapiens), Q15910 [Y641N]; experiment: Inhibition of EZH2 Y641N mutant (unknown origin) at 10 uM using SAM as substrate measured up to 960 mins by AlphaScreen microplate reader assay relative to control; settings: time min <=960
[17] = Clearance in mouse at 1 mg/kg, iv measured up to 24 hrs by LC-MS/MS analysis; assay type: ADME, organism-based; settings: in vivo
[18] = target: Histone-lysine N-methyltransferase SETDB1 (Homo sapiens) (UniProt Q15047); experiment: Inhibition of SETDB1 (unknown origin) at 10 uM using SAM as substrate measured up to 960 mins by AlphaScreen microplate reader assay relative to control; settings: time min <=960
[19] = target: Histone-lysine N-methyltransferase 2A (Homo sapiens) (UniProt Q03164); experiment: Inhibition of MLL1 (unknown origin) at 10 uM using SAM as substrate measured up to 960 mins by AlphaScreen microplate reader assay relative to control; settings: time min <=960
Sequence of Histone-lysine N-methyltransferase 2A (Homo sapiens) (Q03164 1-2718 limits assumed): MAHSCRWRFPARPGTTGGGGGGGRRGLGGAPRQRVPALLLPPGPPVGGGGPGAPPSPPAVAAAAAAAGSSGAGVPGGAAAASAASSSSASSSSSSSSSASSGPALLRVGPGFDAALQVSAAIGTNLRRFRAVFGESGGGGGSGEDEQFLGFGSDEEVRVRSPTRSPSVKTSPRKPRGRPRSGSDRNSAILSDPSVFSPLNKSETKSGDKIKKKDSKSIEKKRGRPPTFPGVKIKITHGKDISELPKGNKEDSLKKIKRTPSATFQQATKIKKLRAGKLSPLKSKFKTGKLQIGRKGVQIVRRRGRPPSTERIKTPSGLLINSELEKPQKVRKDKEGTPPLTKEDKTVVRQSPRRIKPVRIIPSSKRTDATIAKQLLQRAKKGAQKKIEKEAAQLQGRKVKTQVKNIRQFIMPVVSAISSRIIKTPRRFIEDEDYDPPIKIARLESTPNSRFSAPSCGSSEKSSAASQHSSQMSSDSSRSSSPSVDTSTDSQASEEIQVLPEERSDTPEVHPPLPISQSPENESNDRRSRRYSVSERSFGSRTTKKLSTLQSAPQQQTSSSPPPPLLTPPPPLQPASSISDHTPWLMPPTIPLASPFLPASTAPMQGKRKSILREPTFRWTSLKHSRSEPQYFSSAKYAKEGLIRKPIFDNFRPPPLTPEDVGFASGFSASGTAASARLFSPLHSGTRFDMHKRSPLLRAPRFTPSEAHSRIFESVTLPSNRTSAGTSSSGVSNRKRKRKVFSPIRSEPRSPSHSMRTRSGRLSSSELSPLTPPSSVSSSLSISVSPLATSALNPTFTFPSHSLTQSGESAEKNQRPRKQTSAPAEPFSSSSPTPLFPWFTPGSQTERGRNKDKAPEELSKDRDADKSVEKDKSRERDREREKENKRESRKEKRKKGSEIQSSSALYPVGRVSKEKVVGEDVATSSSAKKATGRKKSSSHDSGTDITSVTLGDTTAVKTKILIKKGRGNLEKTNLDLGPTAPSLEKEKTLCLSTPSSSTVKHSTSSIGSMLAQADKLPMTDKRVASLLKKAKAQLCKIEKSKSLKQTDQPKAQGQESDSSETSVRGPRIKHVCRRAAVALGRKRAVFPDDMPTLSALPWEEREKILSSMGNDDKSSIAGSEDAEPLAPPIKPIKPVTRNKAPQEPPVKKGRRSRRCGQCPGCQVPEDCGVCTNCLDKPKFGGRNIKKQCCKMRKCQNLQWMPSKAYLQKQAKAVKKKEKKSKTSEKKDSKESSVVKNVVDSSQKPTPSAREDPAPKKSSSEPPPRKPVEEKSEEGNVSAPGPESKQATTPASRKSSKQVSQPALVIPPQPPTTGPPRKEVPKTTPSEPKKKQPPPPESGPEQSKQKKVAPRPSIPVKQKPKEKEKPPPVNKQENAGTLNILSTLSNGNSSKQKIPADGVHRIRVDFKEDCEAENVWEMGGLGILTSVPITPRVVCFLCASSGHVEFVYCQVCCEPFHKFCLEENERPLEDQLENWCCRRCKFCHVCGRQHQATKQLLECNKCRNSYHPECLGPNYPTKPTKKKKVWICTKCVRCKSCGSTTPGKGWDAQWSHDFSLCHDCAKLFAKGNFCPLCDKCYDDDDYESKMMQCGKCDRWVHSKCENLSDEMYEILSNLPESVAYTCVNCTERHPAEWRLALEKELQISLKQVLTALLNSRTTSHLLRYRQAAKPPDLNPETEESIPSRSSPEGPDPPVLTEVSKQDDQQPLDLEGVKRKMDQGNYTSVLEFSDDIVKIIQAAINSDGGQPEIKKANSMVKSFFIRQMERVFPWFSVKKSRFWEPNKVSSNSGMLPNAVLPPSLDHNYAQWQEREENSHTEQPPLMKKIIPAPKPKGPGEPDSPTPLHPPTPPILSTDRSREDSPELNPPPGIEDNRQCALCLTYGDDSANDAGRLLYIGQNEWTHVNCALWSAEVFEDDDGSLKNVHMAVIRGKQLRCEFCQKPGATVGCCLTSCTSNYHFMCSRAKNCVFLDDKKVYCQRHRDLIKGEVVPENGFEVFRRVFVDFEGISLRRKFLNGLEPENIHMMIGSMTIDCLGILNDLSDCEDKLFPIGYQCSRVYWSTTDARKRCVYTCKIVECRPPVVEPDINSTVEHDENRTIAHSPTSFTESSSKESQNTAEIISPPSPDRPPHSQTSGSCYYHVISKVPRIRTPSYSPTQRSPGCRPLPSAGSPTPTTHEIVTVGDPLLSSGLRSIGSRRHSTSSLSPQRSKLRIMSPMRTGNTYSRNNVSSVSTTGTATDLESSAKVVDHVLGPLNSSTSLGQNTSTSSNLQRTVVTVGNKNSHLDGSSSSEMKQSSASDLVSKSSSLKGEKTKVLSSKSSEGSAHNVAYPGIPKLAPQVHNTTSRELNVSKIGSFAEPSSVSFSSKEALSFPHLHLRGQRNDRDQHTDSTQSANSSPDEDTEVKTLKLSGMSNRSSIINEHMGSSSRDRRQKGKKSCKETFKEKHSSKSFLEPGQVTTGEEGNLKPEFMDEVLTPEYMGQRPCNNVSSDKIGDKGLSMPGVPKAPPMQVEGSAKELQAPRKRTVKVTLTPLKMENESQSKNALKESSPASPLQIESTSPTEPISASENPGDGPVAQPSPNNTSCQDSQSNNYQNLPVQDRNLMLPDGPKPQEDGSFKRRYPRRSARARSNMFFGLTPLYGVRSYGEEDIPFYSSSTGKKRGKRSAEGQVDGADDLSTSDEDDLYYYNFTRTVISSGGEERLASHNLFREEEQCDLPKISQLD
Sequence of Histone-lysine N-methyltransferase 2A (Homo sapiens) (Q03164 2719-3969 limits assumed): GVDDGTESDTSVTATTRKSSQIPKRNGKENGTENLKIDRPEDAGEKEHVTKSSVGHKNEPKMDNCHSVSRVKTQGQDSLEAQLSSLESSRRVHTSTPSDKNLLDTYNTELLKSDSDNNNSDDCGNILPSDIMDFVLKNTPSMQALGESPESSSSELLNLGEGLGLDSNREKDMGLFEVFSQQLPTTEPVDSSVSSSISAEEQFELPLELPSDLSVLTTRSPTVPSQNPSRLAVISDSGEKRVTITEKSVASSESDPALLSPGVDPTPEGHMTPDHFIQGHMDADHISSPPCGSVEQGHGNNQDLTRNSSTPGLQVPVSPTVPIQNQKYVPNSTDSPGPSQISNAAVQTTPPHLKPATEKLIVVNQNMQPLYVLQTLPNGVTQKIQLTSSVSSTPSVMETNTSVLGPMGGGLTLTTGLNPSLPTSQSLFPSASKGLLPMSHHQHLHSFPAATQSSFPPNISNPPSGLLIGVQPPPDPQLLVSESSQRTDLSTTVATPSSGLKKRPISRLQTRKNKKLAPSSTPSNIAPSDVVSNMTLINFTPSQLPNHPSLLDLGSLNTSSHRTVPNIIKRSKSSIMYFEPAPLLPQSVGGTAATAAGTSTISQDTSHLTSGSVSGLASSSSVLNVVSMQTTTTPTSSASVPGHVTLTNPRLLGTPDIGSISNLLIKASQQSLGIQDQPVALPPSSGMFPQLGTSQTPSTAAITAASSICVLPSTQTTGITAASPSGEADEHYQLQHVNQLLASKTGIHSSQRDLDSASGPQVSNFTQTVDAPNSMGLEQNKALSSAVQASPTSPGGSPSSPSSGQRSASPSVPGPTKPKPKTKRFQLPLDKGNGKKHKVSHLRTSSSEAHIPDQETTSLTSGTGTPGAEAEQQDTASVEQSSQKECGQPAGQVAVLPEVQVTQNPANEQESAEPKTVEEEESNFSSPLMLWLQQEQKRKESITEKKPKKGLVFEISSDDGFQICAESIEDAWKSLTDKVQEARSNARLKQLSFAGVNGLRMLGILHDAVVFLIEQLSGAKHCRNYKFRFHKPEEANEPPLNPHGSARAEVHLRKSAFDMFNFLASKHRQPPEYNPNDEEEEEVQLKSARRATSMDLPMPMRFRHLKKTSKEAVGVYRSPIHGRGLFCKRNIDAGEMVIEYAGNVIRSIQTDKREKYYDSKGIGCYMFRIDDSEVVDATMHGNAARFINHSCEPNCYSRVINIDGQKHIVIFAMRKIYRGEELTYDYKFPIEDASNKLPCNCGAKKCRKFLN

Homo sapiens = species on record: Homo sapiens; experiment: Inhibition of EZH2 (unknown origin) interaction with EED (unknown origin) at 10 uM relative to control
[20] = target: Histone-lysine N-methyltransferase EHMT1 (Homo sapiens) (UniProt Q9H9B1); experiment: Inhibition of GLP (unknown origin) at 10 uM using SAM as substrate measured up to 960 mins by AlphaScreen microplate reader assay relative to control; settings: time min <=960
Pfeiffer [21] = experiment: Antiproliferative activity against human Pfeiffer cells harboring EZH2 A677G mutant assessed as inhibition of cell growth measured after 6 days by CellTiter-Glo luminescent assay; assay type: functional; settings: 144 h, time 6 day
[22] = target: Histone-lysine N-methyltransferase, H3 lysine-79 specific (Homo sapiens) (UniProt Q8TEK3); experiment: Inhibition of DOT1L (unknown origin) at 10 uM using SAM as substrate measured up to 960 mins by AlphaScreen microplate reader assay relative to control; settings: time min <=960
[23] = target: Histone-lysine N-methyltransferase, H3 lysine-36 specific (Homo sapiens) (UniProt Q96L73); experiment: Inhibition of NSD1 (unknown origin) at 10 uM using SAM as substrate measured up to 960 mins by AlphaScreen microplate reader assay relative to control; settings: time min <=960
[24] = system: Histone-lysine N-methyltransferase EZH2 (Homo sapiens), Q15910 [UNDEFINED MUTATION]; experiment: Inhibition of EZH2 A738T mutant (unknown origin) at 10 uM using SAM as substrate measured up to 960 mins by AlphaScreen microplate reader assay relative to control; settings: time min <=960
[25] = target: Histone-lysine N-methyltransferase SUV39H2 (Homo sapiens) (UniProt Q9H5I1); experiment: Inhibition of SUV39H2 (unknown origin) at 10 uM using SAM as substrate measured up to 960 mins by AlphaScreen microplate reader assay relative to control; settings: time min <=960
[26] = Toxicity in NCG mouse xenografted with human KARPAS-422 cells harboring EZH2 Y641N mutant assessed as effect on body weight at 50 to 200 mg/kg, po BID via gavage measured after 28 days; assay type: organism-based; settings: in vivo, 672 h, dose 50-200 mg/kg, time 28 day
Raji = experiment: Antiproliferative activity against human Raji cells expressing wild type EZH2 assessed as inhibition of cell growth measured after 6 days by CellTiter-Glo luminescent assay; settings: 144 h
[27] = Oral bioavailability in mouse at 10 mg/kg measured up to 24 hrs by LC-MS/MS analysis; assay type: ADME, organism-based; settings: in vivo

CCN(C(=O)C1CC1)c1cc(-c2ccc(N3CCN(CC4CC4)CC3)nc2C)cc(C(=O)NCc2c(C)cc(C)[nH]c2=O)c1C
inhibition [1]: 100% | Activity (KARPAS-422 [2]): 0.64 g | inhibition [3]: 2% | inhibition [4]: 99% | CL/F [5]: 291 mL/min/kg | inhibition [6]: 0% | Cmax [7]: 406 ng/mL | Cmax [8]: 240 ng/mL | inhibition [9]: 3% | GI50 (SUD4): 3.87 µM | Cmax [10]: 1240 ng/mL | inhibition [11]: 87% | Activity (KARPAS-422 [12]): 0.057 g | inhibition in vivo at 200 mg/kg (Pfeiffer [13]): 100% | inhibition [14]: 90% | Activity (KARPAS-422 [15]): Active | inhibition [16]: 98% | CL [17]: 44.75 mL/min/kg | inhibition [18]: 1% | inhibition [19]: 12% | inhibition (Homo sapiens): 21% | inhibition [20]: 0% | GI50 (Pfeiffer [21]): 0.003 µM | inhibition [22]: 0% | inhibition [23]: 12% | inhibition [24]: 100% | inhibition [25]: 8% | Activity [26]: Non-Toxic | GI50 (Raji): > 10 µM | bioavailability [27]: 27%

Source: ChEMBL document CHEMBL4831544, “Discovery of IHMT-EZH2-115 as a Potent and Selective Enhancer of Zeste Homolog 2 (EZH2) Inhibitor for the Treatment of B-Cell Lymphomas” (J Med Chem, 2021)
